According to ChEMBL document CHEMBL5303304, “EUbOPEN Chemogenomics Library - IncuCyte” (2023):

Assays:
Format in all cases: toxicity, cell-based
HEK-293T = test: Incucyte cell viability with HEK293T; conditions: human, 10 µM, compound concentration 10 uM
Fibroblast = test: Incucyte cell viability with human fibroblast; conditions: 10 µM, compound concentration 10 uM
U2OS = test: Incucyte cell viability with U2OS; conditions: human, 10 µM, compound concentration 10 uM
Note: unitless GR value; below 1 slowed growth and below 0 cell loss.

Row | SMILES | Growth Rate (HEK-293T; 0 h, replicate number 2) | Growth Rate (HEK-293T; 12 h, replicate number 1) | Growth Rate (HEK-293T; 18 h, replicate number 1) | Growth Rate (HEK-293T; 24 h, replicate number 1) | Growth Rate (Fibroblast; 12 h, replicate number 2) | Growth Rate (Fibroblast; 18 h, replicate number 2) | Growth Rate (Fibroblast; 24 h, replicate number 2) | Growth Rate (U2OS; 0 h, replicate number 2) | Growth Rate (U2OS; 6 h, replicate number 1) | Growth Rate (U2OS; 6 h, replicate number 2) | Growth Rate (U2OS; 12 h, replicate number 1) | Growth Rate (U2OS; 12 h, replicate number 2) | Growth Rate (U2OS; 24 h, replicate number 1) | Growth Rate (U2OS; 24 h, replicate number 2) | Growth Rate (Fibroblast; 0 h, replicate number 2) | Growth Rate (Fibroblast; 6 h, replicate number 1) | Growth Rate (Fibroblast; 18 h, replicate number 1) | Growth Rate (Fibroblast; 24 h, replicate number 1) | Growth Rate (U2OS; 18 h, replicate number 2) | Growth Rate (HEK-293T; 6 h, replicate number 1) | other results
1 | O=C1CCC(N2Cc3cc(CNC(=O)C(F)(F)c4ccc(Cl)cc4)ccc3C2=O)C(=O)N1 (centres undefined) | 0.81 | 0.83 | 0.81 | 0.89 | 0.51 | 0.98 | 0.99 | 0.39 | 0.81 | 0.89 | 0.97 | 0.98 | 0.99 | 0.85 | – | – | – | – | – | – | Growth Rate (HEK-293T; 18 h, replicate number 2): 1
2 | CCCCC/C=C/C=C1/C(=O)C=C[C@@H]1C/C=C\CCCC(=O)O | -0.01 | 0.88 | 0.89 | 0.86 | 0.93 | 0.89 | 0.7 | -0.2 | – | 0.82 | – | 0.62 | 0.68 | 0.85 | -0.86 | 0.99 | 0.94 | 0.72 | 0.7 | – | Growth Rate (HEK-293T; 12 h, replicate number 2): 0.95; Growth Rate (HEK-293T; 18 h, replicate number 2): 0.98; Growth Rate (HEK-293T; 24 h, replicate number 2): 0.94; Growth Rate (U2OS; 18 h, replicate number 1): 0.74
3 | CO[C@H](C)CN1CC[C@]2(C)c3cccc(O)c3C[C@H]1C2(C)C.Cl | -0.19 | – | – | – | – | – | – | -0.73 | 0.44 | 0.57 | 0.7 | 0.71 | 0.84 | 0.92 | -0.48 | – | – | 0.9 | 0.84 | – | Growth Rate (Fibroblast; 0 h, replicate number 1): -1; Growth Rate (U2OS; 18 h, replicate number 1): 0.92
4 | Cc1cc(CN)cc(C)c1-c1ncn(C)c1-c1ccnc2cc(F)ccc12.Cl | 0.04 | – | – | – | – | 0.81 | 0.96 | – | 0.34 | 0.85 | 0.92 | – | – | – | -0.39 | 0.02 | 0.6 | 0.89 | – | 0.92 | Growth Rate (Fibroblast; 0 h, replicate number 1): -1; Growth Rate (Fibroblast; 6 h, replicate number 2): -0.26; Growth Rate (Fibroblast; 12 h, replicate number 1): 0.77
5 | CC1(C)CCN(C(=O)C2CN(c3c4c(nc5ccnn35)CCNCC4)C2)C1.O=C(O)C(F)(F)F | 0.61 | 0.45 | 0.87 | 0.96 | 0.82 | 0.86 | 0.96 | – | 0.78 | – | – | – | – | – | – | – | – | 0.98 | – | -0.5 | –
6 | CN(C)[C@H]1CCN(c2cc(C(F)(F)F)c(C#N)c(Nc3cccc(CCC(=O)O)c3)n2)C1.O=C(O)C(F)(F)F | 0.79 | 0.95 | 0.94 | – | 0.75 | 0.93 | 0.72 | 0.54 | 0.63 | 0.38 | – | 0.78 | – | 0.88 | – | 0.81 | 0.99 | – | 0.89 | 0.73 | Growth Rate (Fibroblast; 6 h, replicate number 2): -0.53; Growth Rate (U2OS; 0 h, replicate number 1): 0.61
7 | Cn1c(C(=O)N[C@@H](CO)c2ccc(C(=O)O)cc2)cc2cc(Cl)ccc21 | 0.28 | – | – | 0.96 | 0.49 | 0.69 | 0.68 | – | 0.58 | – | – | – | 0.92 | – | 0.3 | – | – | 1 | – | 0.78 | Growth Rate (Fibroblast; 6 h, replicate number 2): -0.6; Growth Rate (U2OS; 0 h, replicate number 1): 0.76
8 | Cl.Cl.N=C(N)NCCC[C@H](NC(=O)CC1(CC(=O)N2CCN(C3c4ccccc4NC(=O)c4ccccc43)CC2)CCCC1)C(=O)NCCn1c(=O)n(-c2ccccc2)n(-c2ccccc2)c1=O (some centres undefined) | -0.2 | – | – | – | – | – | – | 0.1 | 0.65 | 0.78 | 0.69 | 0.78 | 0.73 | 0.99 | 0.97 | 0.27 | 0.59 | 0.6 | 0.87 | 0.47 | Growth Rate (Fibroblast; 12 h, replicate number 1): 0.91; Growth Rate (U2OS; 0 h, replicate number 1): 0.38; Growth Rate (U2OS; 18 h, replicate number 1): 0.83
